PubChem BioAssay (NCI)
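Where inhibition never reached the appropriate level, the endpoint shown equals the highest concentration tested. Otherwise, values were interpolated linearly from a five-concentration, 48-hour dose response in 96-well plates. At the GI50, growth is halved. TGI marks complete inhibition of growth.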

Tests used:
Assay in all cases: NCI anticancer screen, dose series, 48 h
CCRF-CEM leukemia = tested on: CCRF-CEM leukemia
DU-145 prostate = tested on: DU-145 prostate
HCT-15 colon = tested on: HCT-15 colon
HT29 colon = tested on: HT29 colon
K-562 leukemia = tested on: K-562 leukemia
MCF7 breast = tested on: MCF7 breast
MDA-MB-435 = tested on: MDA-MB-435
MOLT-4 leukemia = tested on: MOLT-4 leukemia
OVCAR-8 ovarian = tested on: OVCAR-8 ovarian
U251 CNS = tested on: U251 CNS

Structure (SMILES) | GI50 (CCRF-CEM leukemia) [µM] | TGI (CCRF-CEM leukemia) [µM] | GI50 (DU-145 prostate) [µM] | TGI (DU-145 prostate) [µM] | GI50 (HCT-15 colon) [µM] | TGI (HCT-15 colon) [µM] | GI50 (HT29 colon) [µM] | TGI (HT29 colon) [µM] | GI50 (K-562 leukemia) [µM] | TGI (K-562 leukemia) [µM] | GI50 (MCF7 breast) [µM] | TGI (MCF7 breast) [µM] | GI50 (MDA-MB-435) [µM] | TGI (MDA-MB-435) [µM] | GI50 (MOLT-4 leukemia) [µM] | TGI (MOLT-4 leukemia) [µM] | GI50 (OVCAR-8 ovarian) [µM] | TGI (OVCAR-8 ovarian) [µM] | GI50 (U251 CNS) [µM] | TGI (U251 CNS) [µM]
CCCCC[C@H]1CC=C2C(=O)C=C[C@@H]2CC=CCCCC(=O)O[C@@H](CCCCC)CC=C2C(=O)C=C[C@@H]2CC=CCCCC(=O)O[C@@H](CCCCC)CC=C2C(=O)C=C[C@@H]2CC=CCCCC(=O)O1 | 0.251 | > 8.75 | 0.353 | 2.52 | 0.718 | 5.73 | 0.313 | 1.21 | 0.317 | > 8.75 | 0.286 | 2.2 | 0.183 | 0.526 | 0.266 | > 8.75 | 0.277 | > 8.75 | 0.158 | 0.315
CC/C=C\C[C@H](O)C/C=C1/C(=O)C=C[C@@H]1C/C=C\CCCC(=O)OC(C)C | 0.425 | 2.53 | 3.05 | 11.9 | 0.674 | 2.75 | 1.65 | 3.21 | 0.391 | 20.7 | 0.372 | 2.22 | 0.572 | 2.7 | 1.24 | 6.36 | 2.8 | 8.38 | 0.48 | 1.74
C=C(C)[C@@H]1C/C=C(/CO)CC[C@H]2O[C@]2(C)CC/C=C(\C)CC1 | 12.5 | 34.8 | 18.1 | 60.5 | 23.6 | 51.7 | 14.5 | 31.6 | 5.73 | 26.1 | 15.7 | 31.8 | 13.5 | 29.2 | 12.7 | 32 | 24 | 58.4 | 19.9 | 36.2
Oc1[nH]c(N=C2N=c3ccccc3=N2)c2ccccc12 | 1.48 | 27.8 | 10.3 | 22.6 | 3.54 | > 100 | 9.18 | 39.7 | 9.86 | > 100 | 2.65 | 23.7 | 12.4 | 69.4 | 3.28 | 29.5 | 11.4 | 46.4 | 3.4 | 42.3
COc1cccc(Sc2ccc([N+](=O)[O-])c3no[n+]([O-])c23)c1 | 2.6 | 8.14 | 11.3 | 24.4 | 7.82 | 23.1 | 9.8 | > 55.6 | 3.66 | 13 | 4.87 | 20.6 | 13.4 | 43.1 | 4.27 | 16.5 | 6.22 | 24.8 | 13.1 | 30.3
CC(CN1CC(=O)NC(=O)C1)N1CC(=O)NC(=O)C1 (stereo not given) |  | > 662 |  | > 750 |  | > 750 |  | > 687 |  | > 750 |  | > 750 |  | > 750 |  | > 750 |  | > 750 |  | > 750
